# Activity calls are given as the source filed them.
# Columns and labels:
# [1] = cAMP pathway inhibition in counterscreen cell line – TR-FRET cAMP detection, counter-screen for MC4R biased antagonist project, dose response (AID 602305); type: functional, cell-based;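 further: U2OS cells stimulated with forskolin near its EC80 as the cAMP inducer; potency is for inhibition of forskolin-stimulated cAMP signaling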
# [2] = system: Streptococcus sp. 'group A'; assay: Streptococcus pyogenes SK(-)GAS viability under kanamycin – luminescence, BacTiterGlo, confirmation, counter-screen for streptokinase expression inhibitor project, dose response (AID 1900); type: functional, organism-based
# Streptokinase A = biological target: T1, Streptokinase A (Streptococcus pyogenes serotype M1, UniProt P10520); assay: viability-normalized secreted streptokinase activity reduction – plasminogen activation absorbance, OD405, dose response (AID 1914); type: functional, Streptococcus pyogenes M1 GAS;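 further: secreted streptokinase activity via plasminogen activation per viability signal from cell pellet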
# T1 sequence (P10520 whole entry): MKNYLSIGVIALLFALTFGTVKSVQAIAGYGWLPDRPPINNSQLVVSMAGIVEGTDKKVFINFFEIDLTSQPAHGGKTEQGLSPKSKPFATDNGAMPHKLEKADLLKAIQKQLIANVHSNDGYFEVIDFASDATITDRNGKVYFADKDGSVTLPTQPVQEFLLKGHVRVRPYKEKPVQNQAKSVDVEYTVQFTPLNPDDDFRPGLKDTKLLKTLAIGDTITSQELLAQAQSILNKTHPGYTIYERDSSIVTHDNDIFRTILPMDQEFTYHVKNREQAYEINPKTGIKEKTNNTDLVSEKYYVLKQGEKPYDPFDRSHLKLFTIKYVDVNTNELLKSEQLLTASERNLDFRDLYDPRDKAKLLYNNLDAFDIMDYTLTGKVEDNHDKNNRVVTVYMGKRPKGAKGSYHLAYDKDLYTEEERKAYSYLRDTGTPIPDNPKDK
# Streptococcus = assay: GAS UMAA2166 growth inhibition – luminescence, BacTiterGlo, counter-screen for streptokinase expression inhibitor project, dose response (AID 1915); type: functional, organism-based;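 further: potency for reduction of bacterial viability or growth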
# Melanocortin receptor 4 = Melanocortin receptor 4 (Homo sapiens, UniProt P32245); assay: inhibitors of MC4R cAMP signaling – cell-based, TR-FRET, biased antagonists, dose response (AID 602298); type: functional;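 further: antagonist potency against agonist-stimulated cAMP production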
# Melanocortin receptor 4, sequence (P32245 whole entry): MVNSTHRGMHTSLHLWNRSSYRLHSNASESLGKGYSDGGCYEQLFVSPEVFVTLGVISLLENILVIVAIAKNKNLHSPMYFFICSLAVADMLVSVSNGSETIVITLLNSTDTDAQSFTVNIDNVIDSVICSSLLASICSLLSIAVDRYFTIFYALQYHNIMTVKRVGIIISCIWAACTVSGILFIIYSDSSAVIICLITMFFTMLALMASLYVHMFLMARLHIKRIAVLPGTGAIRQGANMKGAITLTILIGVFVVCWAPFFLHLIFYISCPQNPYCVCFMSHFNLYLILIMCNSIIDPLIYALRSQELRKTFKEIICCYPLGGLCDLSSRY
# [3] = biological target: T2, G-protein coupled receptor 55 (Homo sapiens, UniProt Q9Y2T6); assay: blockers of GPR55 signalling, imaged – imaging, image-based, counter-screen for GPR35 antagonist project, SAR follow-up (AID 2397); type: functional
# T2 sequence (Q9Y2T6 whole entry): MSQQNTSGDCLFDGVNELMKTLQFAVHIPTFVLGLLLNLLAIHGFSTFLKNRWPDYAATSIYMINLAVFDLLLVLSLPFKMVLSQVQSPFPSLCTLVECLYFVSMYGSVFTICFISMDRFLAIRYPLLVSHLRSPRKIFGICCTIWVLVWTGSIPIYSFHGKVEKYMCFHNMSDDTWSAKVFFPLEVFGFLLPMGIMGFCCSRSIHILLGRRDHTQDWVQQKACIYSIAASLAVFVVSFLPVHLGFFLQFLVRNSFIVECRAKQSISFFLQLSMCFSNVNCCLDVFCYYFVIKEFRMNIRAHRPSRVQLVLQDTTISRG
# Cannabinoid receptor 1 [4] = biological target: T3, Cannabinoid receptor 1 (Homo sapiens, UniProt P21554); assay: SAR analysis of agonists of the Cannabinoid Receptor 1 using an Image-Based Assay - Set 4. [Related pubchem assays (depositor defined):AID2013, AID2026]; type: functional
# T3 sequence (P21554 whole entry): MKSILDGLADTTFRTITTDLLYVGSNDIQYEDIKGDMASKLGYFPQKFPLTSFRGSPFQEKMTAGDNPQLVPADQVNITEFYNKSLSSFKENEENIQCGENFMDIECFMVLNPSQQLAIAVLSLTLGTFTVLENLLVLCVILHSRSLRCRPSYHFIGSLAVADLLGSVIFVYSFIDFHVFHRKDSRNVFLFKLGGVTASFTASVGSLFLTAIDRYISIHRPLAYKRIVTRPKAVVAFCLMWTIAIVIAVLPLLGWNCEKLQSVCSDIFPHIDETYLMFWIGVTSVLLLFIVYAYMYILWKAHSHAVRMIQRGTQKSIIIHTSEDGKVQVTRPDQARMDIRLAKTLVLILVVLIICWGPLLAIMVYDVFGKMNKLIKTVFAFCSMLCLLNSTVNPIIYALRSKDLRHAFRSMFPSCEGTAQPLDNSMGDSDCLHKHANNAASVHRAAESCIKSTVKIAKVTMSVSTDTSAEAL
# Cannabinoid receptor 2 [5] = biological target: T4, Cannabinoid receptor 2 (Homo sapiens, UniProt P34972); assay: SAR analysis of antagonists of the Cannabinoid Receptor 2 using an Image-Based Assay - Set 3. [Related pubchem assays (depositor defined):AID2013, AID2026]; type: functional
# T4 sequence (P34972 whole entry): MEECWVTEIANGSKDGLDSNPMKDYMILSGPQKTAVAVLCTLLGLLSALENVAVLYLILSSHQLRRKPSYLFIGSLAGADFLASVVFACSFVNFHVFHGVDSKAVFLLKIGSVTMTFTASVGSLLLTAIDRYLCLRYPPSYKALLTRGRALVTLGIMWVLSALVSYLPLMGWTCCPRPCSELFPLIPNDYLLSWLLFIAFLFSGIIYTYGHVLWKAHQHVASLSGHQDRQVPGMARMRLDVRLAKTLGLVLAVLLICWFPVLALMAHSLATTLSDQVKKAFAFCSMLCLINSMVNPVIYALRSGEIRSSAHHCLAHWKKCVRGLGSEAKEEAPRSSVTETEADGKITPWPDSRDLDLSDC
# Cannabinoid receptor 2 [6] = biological target: T4, Cannabinoid receptor 2; assay: SAR analysis of agonists of the Cannabinoid Receptor 2 using an Image-Based Assay - Set 3. [Related pubchem assays (depositor defined):AID2013, AID2026]; type: functional
# Cannabinoid receptor 1 [7] = biological target: T3, Cannabinoid receptor 1; assay: SAR analysis of antagonists of the Cannabinoid Receptor 1 using an Image-Based Assay - Set 4. [Related pubchem assays (depositor defined):AID2013, AID2026]; type: functional
# [8] = biological target: T2, G-protein coupled receptor 55; assay: SAR Analysis of Selective Antagonists of GPR55 using an Image-Based Assay - Set 4. [Related pubchem assays (depositor defined):AID2013, AID2026]; type: functional
# [9] = biological target: T5, G-protein coupled receptor 35 (Homo sapiens, UniProt Q9HC97); assay: SAR analysis of Antagonists of the GPR35 Receptor using an Image-Based Assay - Set 6. [Related pubchem assays (depositor defined):AID2013, AID2026]; type: functional
# T5 sequence (Q9HC97 whole entry): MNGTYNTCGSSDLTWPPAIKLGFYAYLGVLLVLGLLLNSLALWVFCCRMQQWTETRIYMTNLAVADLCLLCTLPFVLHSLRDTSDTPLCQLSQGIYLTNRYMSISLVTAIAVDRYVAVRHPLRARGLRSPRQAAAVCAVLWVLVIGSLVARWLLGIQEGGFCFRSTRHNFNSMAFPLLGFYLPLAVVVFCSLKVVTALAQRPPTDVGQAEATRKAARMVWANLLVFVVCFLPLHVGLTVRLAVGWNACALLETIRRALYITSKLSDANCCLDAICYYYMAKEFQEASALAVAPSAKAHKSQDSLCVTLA
# [10] = biological target: T5, G-protein coupled receptor 35; assay: SAR analysis of Agonists of the GPR35 Receptor using an Image-Based Assay - Set 4. [Related pubchem assays (depositor defined):AID2013, AID2026]; type: functional
# [11] = biological target: Nuclear receptor ROR-gamma (Homo sapiens, UniProt P51449); assay: LXR, FXR and VP16 reporter activity, cell-based, luciferase reporter, ROR modulator project, late-stage follow-up, panel member RORG (AID 2117)
# Nuclear receptor ROR-gamma, sequence (P51449 whole entry): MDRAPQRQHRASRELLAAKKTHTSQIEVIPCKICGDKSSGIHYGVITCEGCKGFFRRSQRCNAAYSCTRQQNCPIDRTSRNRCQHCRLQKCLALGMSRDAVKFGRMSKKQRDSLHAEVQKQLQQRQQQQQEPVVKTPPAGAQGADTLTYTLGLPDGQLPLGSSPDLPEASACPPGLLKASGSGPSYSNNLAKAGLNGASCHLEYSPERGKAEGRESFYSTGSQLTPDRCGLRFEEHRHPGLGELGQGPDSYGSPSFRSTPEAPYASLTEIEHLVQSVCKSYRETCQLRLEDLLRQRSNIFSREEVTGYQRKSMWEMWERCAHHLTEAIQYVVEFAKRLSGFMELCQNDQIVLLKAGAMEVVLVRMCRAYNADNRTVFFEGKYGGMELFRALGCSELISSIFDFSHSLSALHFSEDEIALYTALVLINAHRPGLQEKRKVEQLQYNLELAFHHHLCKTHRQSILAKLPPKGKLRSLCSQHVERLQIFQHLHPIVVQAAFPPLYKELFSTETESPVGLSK
# Beta Lactamase = Beta Lactamase (Pseudomonas aeruginosa, UniProt Q932Y6); assay: BLA reporter interference, concentration series – BLA reporter cells, FRET fluorescence, artefact control for NOD2-RIPK2 interaction inhibitor project, dose response (AID 651552); type: functional, cell-based
# Beta Lactamase, sequence (Q932Y6 whole entry): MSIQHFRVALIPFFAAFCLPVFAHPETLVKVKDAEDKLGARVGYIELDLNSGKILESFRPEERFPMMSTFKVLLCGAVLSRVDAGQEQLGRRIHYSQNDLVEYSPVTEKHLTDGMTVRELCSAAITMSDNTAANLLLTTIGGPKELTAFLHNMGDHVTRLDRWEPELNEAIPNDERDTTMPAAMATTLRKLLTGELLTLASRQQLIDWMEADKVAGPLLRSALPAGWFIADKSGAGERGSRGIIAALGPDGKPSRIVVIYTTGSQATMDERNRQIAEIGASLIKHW
# [12] = biological target: Nuclear receptor ROR-alpha (Homo sapiens, UniProt P35398); assay: LXR, FXR and VP16 reporter activity, cell-based, luciferase reporter, ROR modulator project, late-stage follow-up, panel member RORA (AID 2117)
# Nuclear receptor ROR-alpha, sequence (P35398 whole entry, the tested form may be a part): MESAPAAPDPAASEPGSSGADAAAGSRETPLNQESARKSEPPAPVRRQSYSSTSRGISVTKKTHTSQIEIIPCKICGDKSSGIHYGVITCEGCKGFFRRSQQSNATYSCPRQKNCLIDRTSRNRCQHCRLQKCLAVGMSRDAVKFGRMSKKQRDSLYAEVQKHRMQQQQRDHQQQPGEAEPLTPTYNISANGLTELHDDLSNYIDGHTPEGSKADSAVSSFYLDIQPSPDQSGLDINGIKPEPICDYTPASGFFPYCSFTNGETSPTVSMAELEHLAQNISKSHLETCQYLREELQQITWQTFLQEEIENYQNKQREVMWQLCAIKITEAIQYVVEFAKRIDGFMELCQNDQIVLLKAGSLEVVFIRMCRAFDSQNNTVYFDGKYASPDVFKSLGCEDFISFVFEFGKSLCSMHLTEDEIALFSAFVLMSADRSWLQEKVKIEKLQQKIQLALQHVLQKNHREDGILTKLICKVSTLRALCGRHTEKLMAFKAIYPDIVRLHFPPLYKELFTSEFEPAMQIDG
# [13] = Fluorescence-based cell-based high throughput dose response assay for inhibitors of the interaction of nucleotide-binding oligomerization domain containing 2 (NOD2) and the receptor-interacting serine-threonine kinase 2 (RIPK2).; type: functional; settings: Homo sapiens
# [14] = biological target: Sphingosine 1-phosphate receptor 1 (Homo sapiens, UniProt P21453); assay: Fluorescence-based counterscreen assay for S1P4 agonists: Cell-based dose response high throughput screening assay to identify agonists of the Sphingosine 1-Phosphate Receptor 1 (S1P1). [Related pubchem assays (depositor defined):AID1509, AID1523, AID1801, AID463107, AID463118, AID463119, AID463122, AID463123, AID463129, AID463225, AID504400, AID504460]; type: functional
# Sphingosine 1-phosphate receptor 1, sequence (P21453 whole entry): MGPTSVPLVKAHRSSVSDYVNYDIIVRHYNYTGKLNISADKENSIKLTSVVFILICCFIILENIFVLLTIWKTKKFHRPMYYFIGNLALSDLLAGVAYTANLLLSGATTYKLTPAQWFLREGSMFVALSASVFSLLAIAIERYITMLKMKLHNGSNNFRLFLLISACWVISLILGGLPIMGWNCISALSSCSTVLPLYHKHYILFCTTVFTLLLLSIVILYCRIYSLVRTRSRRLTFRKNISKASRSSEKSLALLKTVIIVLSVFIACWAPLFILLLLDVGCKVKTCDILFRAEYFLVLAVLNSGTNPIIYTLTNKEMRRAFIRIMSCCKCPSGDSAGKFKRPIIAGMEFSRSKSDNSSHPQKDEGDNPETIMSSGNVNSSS
# [15] = biological target: T6, Sphingosine 1-phosphate receptor 4 (Homo sapiens, UniProt O95977); assay: Fluorescence dose response cell-based high throughput screening assay for agonists of the Sphingosine 1-Phosphate Receptor 4 (S1P4). [Related pubchem assays: 1509 (Primary screen.), 1523 (Confirmation screen in triplicates.)]; type: functional
# T6 sequence (O95977 whole entry): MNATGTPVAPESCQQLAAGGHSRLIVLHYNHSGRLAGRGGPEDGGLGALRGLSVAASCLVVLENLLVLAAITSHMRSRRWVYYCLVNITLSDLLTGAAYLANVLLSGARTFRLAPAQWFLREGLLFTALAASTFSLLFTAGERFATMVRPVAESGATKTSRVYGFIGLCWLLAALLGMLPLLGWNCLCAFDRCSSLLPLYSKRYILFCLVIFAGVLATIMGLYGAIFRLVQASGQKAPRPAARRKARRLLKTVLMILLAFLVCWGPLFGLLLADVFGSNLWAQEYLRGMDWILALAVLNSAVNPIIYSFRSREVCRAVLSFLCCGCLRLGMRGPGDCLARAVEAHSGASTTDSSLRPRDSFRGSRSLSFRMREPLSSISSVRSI
# [16] = biological target: T2, G-protein coupled receptor 55; assay: selective activators of receptor GPR55 – imaging, U2OS cells, beta-arrestin-GFP redistribution, primary screen (AID 1961); type: functional
# [17] = biological target: T7, Tyrosine-protein phosphatase non-receptor type 7 (Homo sapiens, UniProt P35236); assay: SAR analysis of chemical inhibitors of HePTP using a Fluorescent assay - Set 2. [Related pubchem assays (depositor defined):AID1059, AID1077, AID1661, AID2085, AID521]; type: functional
# T7 sequence (P35236 whole entry): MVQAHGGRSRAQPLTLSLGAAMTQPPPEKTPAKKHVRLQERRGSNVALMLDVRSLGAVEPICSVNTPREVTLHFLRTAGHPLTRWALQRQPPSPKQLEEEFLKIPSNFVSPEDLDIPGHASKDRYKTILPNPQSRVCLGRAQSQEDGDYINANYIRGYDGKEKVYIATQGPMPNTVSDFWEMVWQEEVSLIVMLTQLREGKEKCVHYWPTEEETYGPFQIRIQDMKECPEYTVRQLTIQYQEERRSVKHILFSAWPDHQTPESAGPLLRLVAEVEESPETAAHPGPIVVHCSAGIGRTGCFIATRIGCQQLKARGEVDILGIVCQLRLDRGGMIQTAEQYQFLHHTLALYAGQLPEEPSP
# Cannabinoid receptor 1 [18] = biological target: T3, Cannabinoid receptor 1; assay: SAR analysis of antagonists of the Cannabinoid Receptor 1 using an Image-Based Assay. [Related pubchem assays (depositor defined):AID1961, AID1965]; type: functional
# [19] = biological target: T2, G-protein coupled receptor 55; assay: SAR analysis of selective Agonists of GPR55 using an Image-Based Assay. [Related pubchem assays (depositor defined):AID1961, AID1965]; type: functional
# [20] = biological target: Dual specificity protein phosphatase 3 (Homo sapiens, UniProt P51452); assay: SAR VHR1 Fluorescent Assay for In Vitro dose response studies Set 2. [Related pubchem assays (depositor defined):AID1654, AID1661, AID1878]; type: functional
# Dual specificity protein phosphatase 3, sequence (P51452 whole entry): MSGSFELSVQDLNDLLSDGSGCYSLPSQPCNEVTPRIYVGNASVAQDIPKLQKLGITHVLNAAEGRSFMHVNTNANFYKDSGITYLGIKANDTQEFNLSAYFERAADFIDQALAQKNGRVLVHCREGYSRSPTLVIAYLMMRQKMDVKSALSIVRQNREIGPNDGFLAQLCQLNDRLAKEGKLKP
# Cannabinoid receptor 2 [21] = biological target: T4, Cannabinoid receptor 2; assay: SAR analysis of agonists of the Cannabinoid Receptor 2 using an Image-Based Assay - Set 2. [Related pubchem assays (depositor defined):AID1961, AID1965]; type: functional
# Cannabinoid receptor 2 [22] = biological target: T4, Cannabinoid receptor 2; assay: SAR analysis of antagonists of the Cannabinoid Receptor 2 using an Image-Based Assay - Set 2. [Related pubchem assays (depositor defined):AID1961, AID1965]; type: functional
# Troponin, cardiac muscle = Troponin, cardiac muscle (Homo sapiens, UniProt P19429+P45379+P63316); assay: Fluorescence-based biochemical high throughput dose response assay for activators of the calcium sensitivity of cardiac Regulated Thin Filaments (RTF). [Related pubchem assays (depositor defined):AID493008, AID493018, AID504382, AID504383]; type: protein-complex assay
# [23] = compound autofluorescence in calcium buffer – biochemical, fluorescence, no RTF in test wells, artefact control for cardiac thin filament activator project, dose response (AID 504697)
# [24] = biological target: T8, Long-chain-fatty-acid--AMP ligase FadD28 (Mycobacterium tuberculosis, UniProt P9WQ59); assay: Fluorescence polarization aasay to screen for inhibitors that compete for the binding of FadD28 to a bisubstrate Measured in Biochemical System Using Plate Reader - 2147-01_Inhibitor_Dose_CherryPick_Activity.; type: functional, Mycobacterium tuberculosis H37Rv
# T8 sequence (P9WQ59 whole entry): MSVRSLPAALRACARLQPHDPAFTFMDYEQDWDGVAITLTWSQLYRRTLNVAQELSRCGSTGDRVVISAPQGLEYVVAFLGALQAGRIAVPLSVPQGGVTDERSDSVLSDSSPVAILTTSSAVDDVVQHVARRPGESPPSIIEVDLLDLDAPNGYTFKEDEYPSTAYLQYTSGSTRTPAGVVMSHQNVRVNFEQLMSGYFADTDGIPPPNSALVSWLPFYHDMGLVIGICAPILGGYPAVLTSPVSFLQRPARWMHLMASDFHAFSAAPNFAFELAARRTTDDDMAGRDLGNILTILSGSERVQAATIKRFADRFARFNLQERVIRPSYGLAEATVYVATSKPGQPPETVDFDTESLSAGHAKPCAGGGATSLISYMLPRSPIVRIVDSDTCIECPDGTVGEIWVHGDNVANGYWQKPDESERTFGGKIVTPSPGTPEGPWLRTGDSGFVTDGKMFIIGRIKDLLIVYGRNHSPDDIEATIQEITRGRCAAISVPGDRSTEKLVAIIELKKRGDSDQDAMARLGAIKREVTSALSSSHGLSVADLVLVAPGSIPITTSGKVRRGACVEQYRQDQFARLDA
# [25] = biological target: E3 ubiquitin-protein ligase XIAP (Homo sapiens, UniProt P98170); assay: Counter Screen using XIAP-Bir3 for Chemical Antagonists of Bir1/2 domains of IAP-family anti-apoptotic proteins. [Related pubchem assays (depositor defined):AID1018, AID1449, AID1514, AID1638, AID1749, AID1750, AID488957, AID488963]
# E3 ubiquitin-protein ligase XIAP, sequence (P98170 whole entry): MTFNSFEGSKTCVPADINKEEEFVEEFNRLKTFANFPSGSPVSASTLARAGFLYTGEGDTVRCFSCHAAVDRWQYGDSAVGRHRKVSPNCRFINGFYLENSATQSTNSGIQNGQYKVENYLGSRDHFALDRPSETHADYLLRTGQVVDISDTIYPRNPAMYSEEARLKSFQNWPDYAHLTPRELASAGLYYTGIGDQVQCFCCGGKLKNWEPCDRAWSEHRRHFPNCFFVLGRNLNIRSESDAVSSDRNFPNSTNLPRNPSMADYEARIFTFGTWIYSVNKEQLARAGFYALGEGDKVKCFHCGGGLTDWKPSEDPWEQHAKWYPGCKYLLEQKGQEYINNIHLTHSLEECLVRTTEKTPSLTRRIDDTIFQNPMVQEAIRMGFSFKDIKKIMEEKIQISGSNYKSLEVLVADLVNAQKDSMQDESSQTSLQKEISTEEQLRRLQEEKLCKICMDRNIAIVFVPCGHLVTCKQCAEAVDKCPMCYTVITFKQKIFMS
smiles,measurement,setting,value
Cc1nc(N2CCC(C)CC2)c2c(C)c(C(=O)Nc3ccccc3C(F)(F)F)sc2n1,IC50,[1],> 64.6 µM (inactive)
same,EC50,[2],3.69 µM (active)
same,EC50,Streptokinase A,6.34 µM (active)
same,EC50,Streptococcus,41.5 µM (active)
same,IC50,Melanocortin receptor 4,> 64.6 µM (inactive)
same,IC50,[3],6.95 µM (active)
COc1ccc(-c2nnc(C)c3nn(-c4ccc(C)cc4)cc23)cc1,EC50,Cannabinoid receptor 1 [4],> 32 µM (inactive)
same,IC50,Cannabinoid receptor 2 [5],> 15.6 µM (inactive)
same,EC50,Cannabinoid receptor 2 [6],> 32 µM (inactive)
same,IC50,Cannabinoid receptor 1 [7],3.56 µM (active)
same,IC50,[8],> 32 µM (inactive)
same,IC50,[9],> 32 µM (inactive)
same,EC50,[10],> 32 µM (inactive)
O=S(=O)(Nc1ccc(C(O)(C(F)(F)F)C(F)(F)F)cc1)c1ccc(Cl)c2nonc12,IC50,[11],2.08 µM (active)
same,IC50,Beta Lactamase,41.6 µM (inactive)
same,IC50,[12],7.28 µM (active)
same,IC50,[13],14.3 µM (inactive)
O=C(NCc1ccccc1)c1nc[nH]c1C(=O)N[C@@H](Cc1ccccc1)C(=O)OCc1ccccc1,EC50,[14],> 49.8 µM (inactive)
same,EC50,[15],90.2 µM (not active)
COc1ccccc1/C=C/C(=O)NC(=S)Nc1ccc(S(=O)(=O)N(C)c2ccccc2)cc1,EC50,[16],< 0.5 µM (active)
same,IC50,[17],> 100 µM (inactive)
same,IC50,Cannabinoid receptor 1 [18],> 32 µM (inactive)
same,EC50,[19],0.114 µM (active)
same,IC50,[20],> 100 µM (inactive)
same,EC50,Cannabinoid receptor 2 [21],> 32 µM (inactive)
same,IC50,Cannabinoid receptor 2 [22],> 32 µM (inactive)
CCN1C(=O)C(=CNc2ccc(N3CCOCC3)cc2)C(=O)N(CC)C1=S,EC50,"Troponin, cardiac muscle",5.15 µM (active)
same,EC50,[23],> 7.94 µM (active)
same,AC50,[24],> 100 µM (inactive)
same,IC50,[25],> 20 µM (inactive)

# Reference: ChEMBL document CHEMBL1201862, “PubChem BioAssay data set” (2004)
